Assay [1] has as its target T1, angiotensin converting enzyme (Oryctolagus cuniculus, UniProt P12822).
T1 sequence (P12822 34-1310): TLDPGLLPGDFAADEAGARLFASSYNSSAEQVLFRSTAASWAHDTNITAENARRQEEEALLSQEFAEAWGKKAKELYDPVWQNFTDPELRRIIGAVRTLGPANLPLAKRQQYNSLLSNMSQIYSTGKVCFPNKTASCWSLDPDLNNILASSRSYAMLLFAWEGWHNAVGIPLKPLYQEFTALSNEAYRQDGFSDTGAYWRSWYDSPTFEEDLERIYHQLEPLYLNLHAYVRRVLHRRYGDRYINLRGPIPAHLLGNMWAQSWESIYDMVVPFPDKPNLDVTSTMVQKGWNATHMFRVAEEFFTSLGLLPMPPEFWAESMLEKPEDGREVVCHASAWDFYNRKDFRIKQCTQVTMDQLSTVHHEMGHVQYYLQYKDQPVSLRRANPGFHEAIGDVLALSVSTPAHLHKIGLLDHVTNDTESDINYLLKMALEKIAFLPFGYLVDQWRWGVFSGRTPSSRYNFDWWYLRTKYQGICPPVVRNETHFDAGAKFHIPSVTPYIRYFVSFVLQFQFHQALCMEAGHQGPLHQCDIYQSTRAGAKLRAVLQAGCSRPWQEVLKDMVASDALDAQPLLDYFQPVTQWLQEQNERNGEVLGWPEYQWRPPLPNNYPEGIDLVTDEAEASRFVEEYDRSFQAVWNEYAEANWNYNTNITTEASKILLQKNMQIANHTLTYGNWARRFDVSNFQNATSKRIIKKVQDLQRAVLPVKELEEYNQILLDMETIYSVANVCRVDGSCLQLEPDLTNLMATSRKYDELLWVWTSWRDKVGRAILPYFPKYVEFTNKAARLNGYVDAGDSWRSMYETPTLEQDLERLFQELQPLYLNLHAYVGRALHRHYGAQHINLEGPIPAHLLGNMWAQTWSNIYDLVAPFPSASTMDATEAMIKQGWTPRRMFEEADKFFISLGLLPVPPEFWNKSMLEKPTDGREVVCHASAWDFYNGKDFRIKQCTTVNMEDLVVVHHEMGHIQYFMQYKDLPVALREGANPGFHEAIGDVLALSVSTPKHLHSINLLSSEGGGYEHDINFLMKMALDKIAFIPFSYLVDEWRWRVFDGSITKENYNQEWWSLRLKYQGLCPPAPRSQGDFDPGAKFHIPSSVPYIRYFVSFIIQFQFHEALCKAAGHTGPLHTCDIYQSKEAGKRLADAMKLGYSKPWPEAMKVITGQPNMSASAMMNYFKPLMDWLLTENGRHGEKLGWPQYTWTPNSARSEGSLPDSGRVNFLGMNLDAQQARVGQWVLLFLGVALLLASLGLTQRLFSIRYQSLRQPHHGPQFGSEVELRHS
Kind of assay: angiotensin converting enzyme inhibition (ACEI activity), method of Science 196, 441-4 (1977). The class given is biochemical. Particulars: amount required for 50% inhibitive effect, read-out: I50 (ACEI activity). An excerpt: The I50 value represents the amount in micromols required to give an inhibitive effect of 50% in the tests using the procedure described in the Science article.

Assay [2] relates to angiotensin I-induced hypertensive rats. As to the kind of experiment: oral antihypertensive activity in angiotensin I-induced hypertensive rats. The class given is in vivo. Particulars: Rattus norvegicus, dose for 50% reduction in angiotensin I-induced hypertension, read-out: I50 (ID50, antihypertensive activity).

With `CC(=O)SCC(C)C(=O)N(CC(=O)O)C1CCCCCC1` (centres unmarked) [Cycloheptyl CH3 CO, N-(3-Acetylthio-2-methylpropanoyl)-N-cycloheptylglycine], in assay [1], the IC50 was 88 nM.
Turning to `CC(=O)SCC(C)C(=O)N(CC(=O)O)c1ccccc1` (centres unmarked) [Phenyl CH3 CO, N-(3-Acetylthio-2-methylpropanoyl)-N-phenylglycine], the ED50 in assay [2] was determined as 0.23 mg/kg.
`CC(CS)C(=O)N(CC(=O)O)C1CCC1` (centres unmarked) [Cylcobutyl H, N-(3-Mercapto-2-methylpropanoyl)-N-cyclobutylglycine]: the ED50 in assay [2] is 0.21 mg/kg.
Turning to `CC(CS)C(=O)N(CC(=O)O)[C@@H]1C[C@H]2CC[C@@H]1C2` (stereo partly drawn) [exo-Norbornyl H, N-(3-Mercapto-2-methylpropanoyl)-N-(exo-norbornyl)glycine], the IC50 in assay [1] stood at 25 nM. The ED50 in assay [2] stood at 0.11 mg/kg.
As for `CC(CS)C(=O)N(CC(=O)O)C1Cc2ccccc2C1` (centres unmarked) [2-Indanyl H, N-(3-Mercapto-2-methylpropanoyl)-N-(indan-2-yl)glycine], in assay [2], the ED50 was 0.16 mg/kg.
Take `CC(=O)SCC(C)C(=O)N(CC(=O)O)C1CCCC1` (centres unmarked) [Cyclopentyl CH3 CO, N-(3-Acetylthio-2-methylpropanoyl)-N-cyclopentylglycine]: the IC50 in assay [1] worked out at 44 nM. The ED50 in assay [2] turned out to be 0.16 mg/kg.
Take `CC(CS)C(=O)N(CC(=O)O)C1CCCC1` (centres unmarked) [Cyclopentyl H, N-(3-Mercapto-2-methylpropanoyl)-N-cyclopentylglycine]: in assay [2], the ED50 came to 0.15 mg/kg.
Take `CC(=O)SCC(C)C(=O)N(CC(=O)O)C1CC1` (centres unmarked) [Cyclopropyl CH3 CO, N-(3-Acetylthio-2-methylpropanoyl)-N-(cyclopropyl)glycine]: the ED50 in assay [2] worked out at 0.13 mg/kg.
For `COCCN(CC(=O)O)C(=O)C(C)CS` (centres unmarked) [H3 CO(CH2)2 H], the IC50 in assay [1] worked out at 95 nM.
`CC(CS)C(=O)N(CC(=O)O)C1CCCCCC1` (centres unmarked) [Cycloheptyl H, N-(3-Mercapto-2-methylpropanoyl)-N-cycloheptylglycine]: the ED50 in assay [2] amounted to 0.021 mg/kg.
Take `CSCCCN(CC(=O)O)C(=O)C(C)CS` (centres unmarked) [H3 CS(CH2)3 H, N-(3-Mercapto-2-methylpropanoyl)-N-(3-methylthiopropyl)glycine]: the IC50 in assay [1] was determined as 55 nM.
On to `CC(=O)SCC(C)C(=O)N(CC(=O)O)[C@@H]1C[C@H]2CC[C@@H]1C2` (stereo partly drawn) [exo-Norbornyl CH3 CO, N-(3-Acetylthio-2-methylpropanoyl)-N-(exo-norbornyl)glycine], for which the IC50 in assay [1] was 22 nM. Further, the ED50 in assay [2] worked out at 0.06 mg/kg.
Turning to `CC(CS)C(=O)N(CC(=O)O)C1CC1` (centres unmarked) [Cyclopropyl H, N-(3-Mercapto-2-methylpropanoyl)-N-cyclopropylglycine], the IC50 in assay [1] was found to be 27 nM. For the same compound, the ED50 in assay [2] came to 0.14 mg/kg.
